Patent US20250179103A1, “6-OXODECAHYDROPYRROLO[1,2-A][1,5]DIAZOCINE AND 6-OXODECAHYDRO-4H-PYRROLO[2,1-D][1,5]THIAZOCINE DERIVATIVES AS STAT3 AND STAT6 MODULATORS FOR THE TREATMENT OF CANCER AND INFLAMMATORY CONDITIONS” (Recludix Pharma, Inc., priority 2022, published 2025)

Legend:
[1] = target: T1, Recombinant STAT6 protein (STAT6(W123-T658)) (Homo sapiens, UniProt P42226); experiment: STAT6 Fluorescence Polarization (FP) Assay; type: binding; settings: STAT6(W123-T658) 250 nM, probe 5-FAM-ApYKPFQDLI-NH2 2 nM, 45-minute incubation
T1 construct: Recombinant STAT6 protein (STAT6(W123-T658))
T1 sequence (P42226 123-658): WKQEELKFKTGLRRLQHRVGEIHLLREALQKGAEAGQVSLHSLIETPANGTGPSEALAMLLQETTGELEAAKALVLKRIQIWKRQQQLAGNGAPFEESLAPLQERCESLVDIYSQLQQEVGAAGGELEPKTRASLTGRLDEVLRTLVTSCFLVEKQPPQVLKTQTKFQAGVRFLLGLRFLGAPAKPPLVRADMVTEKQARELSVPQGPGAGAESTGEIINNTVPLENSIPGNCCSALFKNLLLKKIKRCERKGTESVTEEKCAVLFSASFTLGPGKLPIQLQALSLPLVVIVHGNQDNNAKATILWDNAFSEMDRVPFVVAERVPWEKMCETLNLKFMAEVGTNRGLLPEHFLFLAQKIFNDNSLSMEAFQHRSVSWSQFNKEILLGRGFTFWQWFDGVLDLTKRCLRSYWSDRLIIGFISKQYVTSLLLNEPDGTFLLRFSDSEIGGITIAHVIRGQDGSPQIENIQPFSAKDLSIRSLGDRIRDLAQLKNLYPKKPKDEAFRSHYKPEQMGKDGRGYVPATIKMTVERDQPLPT
Method in brief: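 Displacement of a fluorescent phosphotyrosine peptide (5-FAM-ApYKPFQDLI-NH2, 2 nM) from STAT6(W123-T658) (250 nM), 1% DMSO, pH 7.4 HEPES buffer. After 45 min at room temperature, polarization (mP) was plotted versus log compound concentration and fitted by nonlinear regression to give IC50.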

[2] = target: T2, Recombinant STAT3 protein (STAT3(G127-I722)) (Homo sapiens, UniProt P40763); experiment: STAT3 Fluorescence Polarization (FP) Assay; type: binding; settings: STAT3(G127-I722) 25 nM, probe 5-FAM-GpYLPQTV-NH2 2 nM, 45-minute incubation
T2 construct: Recombinant STAT3 protein (STAT3(G127-I722))
T2 sequence (P40763 127-722): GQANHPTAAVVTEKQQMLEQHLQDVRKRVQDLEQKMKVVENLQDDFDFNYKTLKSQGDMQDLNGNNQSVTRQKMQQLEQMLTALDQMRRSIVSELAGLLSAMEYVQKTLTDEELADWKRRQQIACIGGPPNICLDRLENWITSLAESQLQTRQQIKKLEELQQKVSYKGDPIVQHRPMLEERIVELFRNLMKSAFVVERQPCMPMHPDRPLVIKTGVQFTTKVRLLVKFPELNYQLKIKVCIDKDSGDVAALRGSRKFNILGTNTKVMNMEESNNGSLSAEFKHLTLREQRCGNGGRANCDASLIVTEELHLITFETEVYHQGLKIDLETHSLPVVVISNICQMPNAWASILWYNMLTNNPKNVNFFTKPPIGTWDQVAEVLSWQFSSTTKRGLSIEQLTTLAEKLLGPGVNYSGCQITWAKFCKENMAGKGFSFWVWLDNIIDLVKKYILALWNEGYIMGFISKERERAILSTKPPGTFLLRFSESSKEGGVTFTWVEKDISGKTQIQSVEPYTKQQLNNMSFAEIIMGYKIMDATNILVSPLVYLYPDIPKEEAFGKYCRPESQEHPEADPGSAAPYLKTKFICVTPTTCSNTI
Method in brief: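 STAT3(G127-I722), 25 nM, was mixed with 2 nM 5-FAM-GpYLPQTV-NH2 probe in HEPES pH 7.4 buffer with 1% DMSO and serially diluted compound. FP (mP) was read after 45 min at room temperature. IC50 came from nonlinear regression.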

| SMILES | IC50 [1] [nM] | IC50 [2] [nM] |
| --- | --- | --- |
| CC(=O)N1CC[C@H]2CC[C@@H](C(=O)Nc3ccc(-c4ccccc4)cc3CC(N)=O)N2C(=O)[C@@H](NC(=O)c2cc3cc(C(F)(F)P(=O)(O)O)ccc3s2)C1 [Compound 177, ((2-(((5S,8S,10aR)-3-acetyl-8-((3-(2-amino-2-oxoethyl)-[1,1′-biphenyl]-4-yl)carbamoyl)-6-oxodecahydropyrrolo[1,2-a][1,5]diazocin-5-yl)carbamoyl)benzo[b]thiophen-5-yl)difluoromethyl)phosphonic acid] | 300 to 3000 | ≤ 100 |
| CC(=O)N1CC[C@H]2CC[C@@H](C(=O)Nc3ccc(-c4ccccc4)[nH]c3=O)N2C(=O)[C@@H](NC(=O)c2cc3cc(C(F)(F)P(=O)(O)O)ccc3[nH]2)C1 [Compound 180, ((2-(((5S,8S,10aR)-3-acetyl-6-oxo-8-((2-oxo-6-phenyl-1,2-dihydropyridin-3-yl)carbamoyl)decahydropyrrolo[1,2-a][1,5]diazocin-5-yl)carbamoyl)-1H-indol-5-yl)difluoromethyl)phosphonic acid] | 300 to 3000 | 100 to 1000 |
| CC(=O)N1CC[C@H]2CC[C@@H](C(=O)N[C@H]3CN(C(C)=O)C[C@@H]3O)N2C(=O)[C@@H](NC(=O)c2cc3cc(C(F)(F)P(=O)(O)O)ccc3s2)C1 [Compound 182, ((2-(((5S,8S,10aR)-3-acetyl-8-(((3S,4S)-1-acetyl-4-hydroxypyrrolidin-3-yl)carbamoyl)-6-oxodecahydropyrrolo[1,2-a][1,5]diazocin-5-yl)carbamoyl)benzo[b]thiophen-5-yl)difluoromethyl)phosphonic acid] | 300 to 3000 | 100 to 1000 |
| CC(=O)N1CC[C@H]2CC[C@@H](C(=O)N(C)[C@H]3CN(C(C)=O)C[C@@H]3O)N2C(=O)[C@@H](NC(=O)c2cc3cc(C(F)(F)P(=O)(O)O)ccc3s2)C1 [Compound 183, ((2-(((5S,8S,10aR)-3-acetyl-8-(((3S,4S)-1-acetyl-4-hydroxypyrolidin-3-yl)(methyl)carbamoyl)-6-oxodecaohydrpyrrolo[1,2-a][1,5]diazocin-5-yl)carbamoyl)benzo[b]thiophen-5-yl)difluoromethyl)phosphonic acid] | 300 to 3000 | 1000 to 10000 |

The next lines start with the values.

| IC50 [1] [nM] | IC50 [2] [nM] | SMILES |
| --- | --- | --- |
| 300 to 3000 | 100 to 1000 | CC(=O)N1CC[C@H]2CC[C@@H](C(=O)Nc3ccc(-c4ccccc4)cc3CC#N)N2C(=O)[C@@H](NC(=O)c2cc3cc(C(F)(F)P(=O)(O)O)ccc3s2)C1 [Compound 176, ((2-(((5S,8S,10aR)-3-acetyl-8-((3-(cyanomethyl)-[1,1′-biphenyl]-4-yl)carbamoyl)-6-oxodecahydropyrrolo[1,2-a][1,5]diazocin-5-yl)carbamoyl)benzo[b]thiophen-5-yl)difluoromethyl)phosphonic acid] |
| 300 to 3000 | 100 to 1000 | CC(=O)N1CC[C@H]2CC[C@@H](C(=O)Nc3ccc(-c4ccccc4)cc3[N+](=O)[O-])N2C(=O)[C@@H](NC(=O)c2cc3cc(C(F)(F)P(=O)(O)O)ccc3s2)C1 [Compound 178] |
| 300 to 3000 | 100 to 1000 | CC(=O)N1CC[C@H]2CC[C@@H](C(=O)Nc3ccc(-c4ccccc4)c([N+](=O)[O-])c3)N2C(=O)[C@@H](NC(=O)c2cc3cc(C(F)(F)P(=O)(O)O)ccc3s2)C1 [Compound 179, ((2-(((5S,8S,10aR)-3-acetyl-8-((2-nitro-[1,1′-biphenyl]-4-yl)carbamoyl)-6-oxodecahydropyrrolo[1,2-a][1,5]diazocin-5-yl)carbamoyl)benzo[b]thiophen-5-yl)difluoromethyl)phosphonic acid] |
| 300 to 3000 | 1000 to 10000 | CC(=O)N1CC[C@H]2CC[C@@H](C(=O)Nc3ccccc3)N2C(=O)[C@@H](NC(=O)c2cc3cc(C(F)(F)P(=O)(O)O)ccc3s2)C1 [Compound 181, ((2-(((5S,8S,10aR)-3-acetyl-6-oxo-8-(phenylcarbamoyl)decahydropyrrolo[1,2-a][1,5]diazocin-5-yl)carbamoyl)benzo[b]thiophen-5-yl)difluoromethyl)phosphonic acid] |
